Paper PMC5114681, “Molecular Mechanism of Action of Antimalarial Benzoisothiazolones: Species-Selective Inhibitors of the Plasmodium spp. MEP Pathway enzyme, IspD” (Scientific Reports, 2016)
“Also recorded” adds a separate entry of the source.

What was measured:
A. thaliana IspD = tested on: A. thaliana IspD; design: method as in PMID 24446431, PMID 21766403, PMID 22975264; settings: known IspD inhibitors, Fig. 2; cited from earlier work
P. falciparum strain 3D7 [1] = test: Parasite growth inhibition with and without IPP supplementation (rescue); assay type: cell-based; settings: for IPP rescue of parasite growth: 200 μM IPP supplementation
Procedure: (§1) Asynchronous cultures of P. falciparum strain 3D7 were diluted to 1% parasitemia and cultured at indicated concentrations of inhibitor compounds in 100 μL culture volumes. During rescue experiments, parasite growth medium was supplemented with 200 μM isopentenyl pyrophosphate (IPP; Echelon Biosciences). After 72 hours, parasite growth was quantified using PicoGreen dye (Invitrogen) to measure DNA content as previously described. PicoGreen fluorescence was measured (485 nm excitation/528 nm emission) in a POLARStar Omega microplate reader (BMG Labtech).

MEP pathway = test: MEP metabolite profiling (LC-MS/MS of DOXP and MEcPP) in treated parasites; settings: 10 hours; for MEcPP levels compared to untreated parasites: 3 μM 8 or 5 μM FSM
P. vivax IspD = tested on: P. vivax IspD; design: method as in PMID 24446431, PMID 21766403, PMID 22975264; settings: known IspD inhibitors, Fig. 2; cited from earlier work
P. falciparum IspD = tested on: P. falciparum IspD; design: method as in PMID 26783558, PMID 25367906, PMID 24247137, PMID 25754494; settings: known IspD inhibitors, Fig. 2; cited from earlier work
PfIspD = PfIspD (Plasmodium falciparum, UniProt Q8I273); test: biochemical; settings: mean and SEM; n ≥ 3
Procedure: (§2) Phosphate released by IspD was quantified using the EnzChek Phosphate Assay Kit (Invitrogen, Life Technologies), as previously described. 2-Amino-6-mercapto-7-methylpurine riboside (MESG) and purine nucleoside phosphorylase (PNP) were diluted and stored according to the manufacturer’s instructions. Final concentrations of reagents were as follows: 100 mM NaCl, 25 mM Tris pH 7.5, 7.5 mM MgCl2, 1 U/ml PNP, 0.1 U/mL yeast inorganic pyrophosphatase (New England Biolabs). […] Reactions were performed in 50 μL final volumes in 96-well clear flat bottom plates. In general, enzymes, buffers, and inhibitors were pre-warmed approximately 15 minutes at 37 °C, and reactions were then initiated by addition of the MEP substrate. […] Assays using E. coli IspD used 7.5 nM EcIspD-wt or 75 nM EcIspD-A14C. Absorbance at 360 nm was measured over time on a BMG POLARStar plate reader, preheated to 37 °C. Nonlinear regression analysis was performed using GraphPad Prism software. […] Slopes of changing absorbance values were converted to (μM MEP) (μM enzyme)^−1 s^−1 using a phosphate standard curve.

PvIspD = PvIspD (Plasmodium vivax, UniProt A5K9U5); test: IspD enzyme assay (EnzChek phosphate release), recombinant PvIspD; assay type: biochemical, P. vivax
Procedure: as §2

P. falciparum strain 3D7 [2] = test: Parasite sensitivity assay (PicoGreen, 72 hours), strain 3D7; assay type: cell-based; settings: Plasmodium falciparum, mean and SEM, n ≥ 3, read-out: (3D7) EC50, P. falciparum growth in culture
Procedure: (§3) Unless otherwise specified, P. falciparum parasites were cultured as previously described, in a 2% suspension of human erythrocytes in RPMI-1640 medium (Sigma Aldrich) supplemented with 27 mM sodium bicarbonate, 11 mM glucose, 5 mM HEPES, 1 mM sodium pyruvate, 0.37 mM hypoxanthine, 0.01 mM thymidine, 10 μg ml^−1 gentamicin and 0.5% Albumax (Life Technologies). Cultures were maintained in 5% O2/5% CO2/90% N2 at 37 °C. Parasite growth was monitored by microscopy of Giemsa-stained parasites. 3D7 strain parasites were obtained from the Malaria Research and Reference Reagent Resource Center, ATCC, Manassas, Virginia. D6 and 7G8 strains were obtained through BEI Resources Repository, NIAID, NIH: Plasmodium falciparum, Strain D6, MRA-285, contributed by D.E. Kyle; Plasmodium falciparum, Strain 7G8, MRA-152, contributed by David Walliker. The IPC 5202 strain was provided by the Malaria Research and Reference Reagent Resource Center (MR4) for distribution by BEI Resources NIAID, NIH: Plasmodium falciparum, Strain IPC 5202, also known as CAM3.IR539T; MRA-1240, contributed by Didier Ménard.
as §1

P. falciparum strain D6 = test: Parasite sensitivity assay, strain D6 (mefloquine-resistant); assay type: cell-based; settings: Plasmodium falciparum, mean and SEM, read-out: Whole Cell Growth Inhibition EC50
Procedure: as §3, with “The IPC 5202 strain was provided by the Malaria Research and Reference Reagent Resource Center (MR4) for distribution by BEI Resources NIAID, NIH: Plasmodium falciparum, Strain IPC 5202, also known as CAM3.IR539T; MRA-1240, contributed by Didier Ménard.” left out
as §1, with “During rescue experiments, parasite growth medium was supplemented with 200 μM isopentenyl pyrophosphate (IPP; Echelon Biosciences).” left out

P. falciparum strain 7G8 = test: Parasite sensitivity assay, strain 7G8 (multidrug (chloroquine)-resistant); assay type: cell-based; settings: Plasmodium falciparum, mean and SEM, read-out: Whole Cell Growth Inhibition EC50
Procedure: as §3, with “The IPC 5202 strain was provided by the Malaria Research and Reference Reagent Resource Center (MR4) for distribution by BEI Resources NIAID, NIH: Plasmodium falciparum, Strain IPC 5202, also known as CAM3.IR539T; MRA-1240, contributed by Didier Ménard.” left out
as §1, with “During rescue experiments, parasite growth medium was supplemented with 200 μM isopentenyl pyrophosphate (IPP; Echelon Biosciences).” left out

[3] = tested on: P. falciparum strain IPC 5202; test: Parasite sensitivity assay, strain IPC 5202 (artemisinin-resistant); assay type: cell-based; settings: Plasmodium falciparum, mean and SEM, read-out: Whole Cell Growth Inhibition EC50
Procedure: as §3, with “The IPC 5202 strain was provided by the Malaria Research and Reference Reagent Resource Center (MR4) for distribution by BEI Resources NIAID, NIH: Plasmodium falciparum, Strain IPC 5202, also known as CAM3.IR539T; MRA-1240, contributed by Didier Ménard.” left out
as §1, with “During rescue experiments, parasite growth medium was supplemented with 200 μM isopentenyl pyrophosphate (IPP; Echelon Biosciences).” left out

PfIspD-C202A = test: IspD enzyme assay, recombinant PfIspD-C202A mutant; assay type: biochemical, P. falciparum; settings: prolonged (50 min.) incubation
Procedure: as §2

EcIspD-wt = molecular target: T1, EcIspD-wt (Escherichia coli, UniProt Q46893); test: IspD enzyme assay, recombinant EcIspD-wt; assay type: biochemical, E. coli
T1 construct: 6His; made in house; host or cells: Artic Express (DE3) RIL E. coli
Procedure: as §2

EcIspD-A14C = molecular target: T2, EcIspD-A14C (Escherichia coli, UniProt Q46893, A14C); test: IspD enzyme assay, recombinant EcIspD-A14C mutant; assay type: biochemical, E. coli
T2 construct: Amplicons containing the entire E. coli IspD gene were generated; 6His (N); made in house; host or cells: Artic Express (DE3) RIL E. coli
Procedure: as §2

[4] = Calculated ClogD and aqueous solubility (AstraZeneca algorithms); settings: predicted values

Sequence of PvIspD (A5K9U5 entry or part of it): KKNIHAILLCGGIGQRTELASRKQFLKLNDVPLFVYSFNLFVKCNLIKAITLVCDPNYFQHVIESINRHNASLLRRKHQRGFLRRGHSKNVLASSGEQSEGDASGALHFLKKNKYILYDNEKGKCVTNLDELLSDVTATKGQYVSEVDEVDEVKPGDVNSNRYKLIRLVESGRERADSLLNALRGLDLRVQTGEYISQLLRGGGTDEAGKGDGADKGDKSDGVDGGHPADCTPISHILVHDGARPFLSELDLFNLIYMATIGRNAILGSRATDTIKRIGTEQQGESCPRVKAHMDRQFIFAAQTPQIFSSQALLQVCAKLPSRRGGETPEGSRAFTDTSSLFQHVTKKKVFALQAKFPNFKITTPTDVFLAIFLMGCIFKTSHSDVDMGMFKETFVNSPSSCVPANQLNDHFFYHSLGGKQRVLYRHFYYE
Sequence of PfIspD (Q8I273 entry or part of it): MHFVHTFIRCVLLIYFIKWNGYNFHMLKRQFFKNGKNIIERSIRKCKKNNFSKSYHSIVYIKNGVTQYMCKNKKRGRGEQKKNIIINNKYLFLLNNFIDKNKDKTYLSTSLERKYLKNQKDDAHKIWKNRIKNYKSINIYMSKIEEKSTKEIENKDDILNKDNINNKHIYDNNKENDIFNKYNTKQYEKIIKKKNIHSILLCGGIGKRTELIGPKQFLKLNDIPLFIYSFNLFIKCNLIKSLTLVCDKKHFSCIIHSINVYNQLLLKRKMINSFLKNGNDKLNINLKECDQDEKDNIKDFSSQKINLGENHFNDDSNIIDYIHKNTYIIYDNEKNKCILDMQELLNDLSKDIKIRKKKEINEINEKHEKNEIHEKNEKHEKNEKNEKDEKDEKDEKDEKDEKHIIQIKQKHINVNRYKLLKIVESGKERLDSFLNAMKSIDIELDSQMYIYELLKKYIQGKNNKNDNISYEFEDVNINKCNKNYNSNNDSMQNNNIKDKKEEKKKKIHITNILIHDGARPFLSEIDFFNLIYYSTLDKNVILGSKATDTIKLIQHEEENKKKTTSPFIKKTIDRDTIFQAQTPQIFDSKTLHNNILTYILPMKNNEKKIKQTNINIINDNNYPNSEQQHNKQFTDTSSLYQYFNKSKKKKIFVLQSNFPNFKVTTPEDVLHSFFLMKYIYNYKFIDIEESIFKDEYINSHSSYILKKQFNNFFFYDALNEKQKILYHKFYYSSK
T1 sequence (Q46893 whole entry): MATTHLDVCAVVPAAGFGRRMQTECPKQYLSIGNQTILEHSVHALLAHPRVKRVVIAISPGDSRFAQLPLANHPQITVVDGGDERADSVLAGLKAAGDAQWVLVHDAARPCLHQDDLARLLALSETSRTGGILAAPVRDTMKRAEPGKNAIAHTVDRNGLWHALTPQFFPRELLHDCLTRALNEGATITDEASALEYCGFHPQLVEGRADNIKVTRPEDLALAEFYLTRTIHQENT
T2 sequence (Q46893 whole entry A14C): as the sequence (Q46893 whole entry) above, with A14C counted along it

Row | SMILES | IC50 (A. thaliana IspD) [nM] | IC50 (PfIspD) [nM] | IC50 (PvIspD) [nM] | EC50 (P. falciparum strain 3D7 [2]) [nM] | further results
1 | Oc1c(Cc2ccccc2)c(Cl)cc2ncnn12 [3a] | 140 |  |  |  | 
2 | N#Cc1cnn2c(O)c(Cc3ccccc3)c(Cl)cc12 [3b] | 35 |  |  |  | 
3 | O=CN(O)CCCP(=O)(O)O [FSM, fosmidomycin, reference compound] |  |  |  |  | IPP rescue of parasite growth (P. falciparum strain 3D7 [1]): rescue; MEcPP levels compared to untreated parasites (MEP pathway): Significant decreases
4 | Oc1c(Br)cc(Br)cc1-c1[nH]c(Br)c(Br)c1Br [compound 1] | 13000 |  |  |  | IC50 (P. vivax IspD): 48000 nM
5 | COc1ccc2nc(NC(=O)c3cc(-c4ccccc4O)n[nH]3)sc2c1 [compound 2] | 1800 |  |  |  | 
6 | O=C(O)[C@@H]1Cc2c([nH]c3ccccc23)[C@@H](c2ccc(Cl)cc2Cl)N1 [compound 4, 1R,3S-MMV008138] |  |  |  |  | IC50 (P. falciparum IspD): 47 nM
7 | Cc1ccc(-n2sc3ccccc3c2=O)cc1S(=O)(=O)N1CCOCC1 [compound 7] |  | 450 ± 79 | 45 ± 20 | 4300 ± 180 | 
8 | COc1ccc(-c2cccc(-n3sc4ccccc4c3=O)c2)cc1 [compound 8, 2-(4’-methoxy-[1,1’-biphenyl]-3-yl)benzo[d]isothiazol-3(2H)-one] |  |  |  |  | EC50 (P. falciparum strain D6): 800 ± 120 nM; EC50 (P. falciparum strain 7G8): 1020 ± 250 nM; EC50 [3]: 1380 ± 190 nM; decrease in sensitivity, PfIspD-C202A versus PfIspD-wt (PfIspD-C202A): 6 fold; inhibition of recombinant EcIspD (wild type) (EcIspD-wt): highly resistant to inhibition; IC50 (EcIspD-A14C): 440 ± 48 nM; IPP rescue of parasite growth (P. falciparum strain 3D7 [1]): did not observe rescue; also recorded: No rescue was observed; EC50 (P. falciparum strain 3D7 [1]; Plasmodium falciparum, 3D7, mean and SEM, n ≥ 3): 980 ± 240 nM; DOXP levels compared to untreated parasites (MEP pathway): not affected; MEcPP levels compared to untreated parasites (MEP pathway): Significant decreases
9 | O=c1c2ccccc2sn1-c1cccc(-c2ccc(Cl)cc2)c1 [compound 9, 2-(4’-chloro-[1,1’-biphenyl]-3-yl)benzo[d]isothiazol-3(2H)-one] |  | 73 ± 20 | 57 ± 13 | 1100 ± 160 | 
10 | O=c1c2ccccc2sn1-c1cccc(-c2ccc(C(F)(F)F)cc2)c1 [compound 10, 2-(4’-(trifluoromethyl)-[1,1’-biphenyl]-3-yl)benzo[d]isothiazol-3(2H)-one] |  | 270 ± 15 | 41 ± 18 | 650 ± 21 | 
11 | CN1CCN(Cc2ccc(-c3cccc(-n4sc5ccccc5c4=O)c3)cc2)CC1 [compound 11, 2-(4’-((4-methylpiperazin-1-yl)methyl)-[1,1’-biphenyl]-3-yl)benzo[d]isothiazol-3(2H)-one] |  | 440 ± 75 | 62 ± 26 | 420 ± 6 | increase in predicted aqueous solubility compared to 9 [4]: 100 fold
12 | O=c1c2ccccc2sn1-c1cccc(-c2ccc(CN3CCC(F)CC3)cc2)c1 [compound 12, 2-(4’-((4-fluoropiperidin-1-yl)methyl)-[1,1’-biphenyl]-3-yl)benzo[d]isothiazol-3(2H)-one] |  | 860 ± 110 | 240 ± 100 | 320 ± 92 | 
13 | O=c1c2ccccc2sn1-c1cccc(-c2ccc(CN3CCOCC3)cc2)c1 [compound 13, 2-(4’-(morpholinomethyl)-[1,1’-biphenyl]-3-yl)benzo[d]isothiazol-3(2H)-one] |  | 400 ± 82 | 50 ± 16 | 410 ± 82 | 
